Assay results taken from patent publication EP4101442A1, “PROCESS FOR PREPARING COMPACTED COENZYME Q10 PARTICLES OF HIGH DENSITY AND IMPROVED FLOWABILITY” (Tradichem Industrial Services, S.L., priority 2021, dated 2022).
Read-outs that look alike come from different tables or passages of the source.

What was measured:
Type in all cases: physicochemical
[1] = Bulk density (PT-SV100 Scott Volumeter)
Excerpt: The bulk density, also called apparent density, can be defined as the ratio of the mass to the volume of an untapped powder sample, as "poured". The bulk density is given in grams per millilitre (g/ml) and is typically calculated by "pouring" a known mass of powder into a graduated cylinder.
(§1) Bulk density and tapped density can be measured according to the method disclosed in the European Pharmacopoeia section 2.9.34 (Bulk density and tapped density of powders), for example, the bulk density may be measured using the PT-SV100 Scott Volumeter and the tapped density may be measured using the PT-TD200 Tap Density Tester (Pharma Test Apparatebau AG, Germany).
(§2) The bulk density was measured using a PT-SV100 Scott Volumeter (Pharma Test) and the tapped density was measured using a PT-TD200 Tap Density Tester (Pharma Test).

[2] = Tapped density (PT-TD200 Tap Density Tester)
Experimental: On the other hand, tapped density, also called compacted density, of a powder is the ratio of the mass of the powder to the volume occupied by the powder after it has been tapped for a defined period of time. Tapped density is measured by first gently introducing a known sample mass into a graduated cylinder and carefully levelling the powder without compacting it. The cylinder is then mechanically tapped by raising the cylinder and allowing it to drop under its own weight using a suitable mechanical tapped density tester that provides a suitable fixed drop distance and nominal drop rate
as §1, §2

[3] = Carr index (compressibility) calculated from bulk and tapped density
Experimental: The Carr index, also called Carr's index or compressibility index, is calculated according to the following formula: Carr index = (Density (tapped)−Density (bulk))/(Density (tapped)) × 100 [formula]
Free flowing powders have smaller values of the Carr index than poor flowing powders. In general, a Carr index greater than 25 is considered to be an indication of poor flowability, and below 15, of good flowability.
(§3) The relationship between Carr index and/or Hausner ratio with powder flowability is well recognized in the art, for example, as disclosed by M. E. Aulton, in "Powder flow", chapter 12 of the well-recognized reference book in pharmaceutical technology "Aulton's Pharmaceutics. The design and manufacture of medicines", Fifth Edition 2018, M.E. Aulton and K.M.G. Taylor, Editors, Elsevier Ltd, as summarized in the following table: […]

[4] = Hausner ratio calculated from bulk and tapped density
Experimental: Hausner ratio is also predictive of powder flow, and is calculated according to the following formula: Hausner ratio = (Density (tapped))/(Density (bulk)) […] [formula]
In this case, a Hausner ratio greater than 1.34 is generally considered to be an indication of poor flowability.
as §3

[5] = Flow rate
[6] = Angle of repose from radius and height of the poured cone; conditions: tan^-1 (height/radius) of the cone after pouring
Excerpt: The "angle of repose" is another parameter for indirectly quantifying powder flowability. It is the angle at which a material will rest on a stationary heap, specifically, is the angle formed by the heap slope and the horizontal plane. It may be calculated by different methods, commonly, just pouring the material on a flat surface. It also can be calculated as "drained angle of repose", as the angle measured on the internal conical face of a material which has been formed when drained from an orifice of a flat-bottomed container to the horizontal. A dynamic angle of repose can also be used, which is the angle to the horizontal of the free surface formed in a relatively slowly rotating drum (Aulton, op. cit., pg. 197).
In this case, the lower the value of the angle of repose, the higher the flowability of the material. It is generally considered that an angle of repose higher than 45 correlates with poor flowability, whereas an angle of repose under 30 correlates with excellent flowability.
The angle of repose was determined by measuring the radius and the height of the cone formed after pouring the powder, using the formula tan^-1 (height/radius).

[7] = Aspect (visual appearance) of the powder or granules
Excerpt: It can be observed that the non-compacted material has damp and agglomerated appearance, whereas the compacted product has dry, non-agglomerated, flowable appearance.

[8] = Particle size by sieving; conditions: compacted product passed through a sieve of 800 micron opening; 100% of the particles
Excerpt: The compactor was connected to a rotor granulator for milling the outcoming compacted plaque. The granulation speed was fixed to 70 r.p.m. and the obtained granulate was passed through a sieve of 800 micron opening.

[9] = Handling observed during manufacture of capsules and tablets
Experimental: All ingredients were added to a Turbula mixer, blended during 15 minutes, and filled into capsules of 00 size.
Furthermore, the powder mixture was easily blended and good homogeneity was easily achieved, without segregation of the ingredients.
All ingredients were mixed in Turbula mixer during about 15 minutes and compressed into tablets.
The powder mixture was easily blended and had good homogeneity, without segregation of the ingredients.

[10] = general description of the starting material, 'for example' value

Row | SMILES | Bulk density [1] | Bulk density ([1]; listed as compacted coenzyme Q10) | Tapped density [2] | Compressibility (Carr Index) [3] | Hausner ratio [4] | Flow rate [5] | Angle of repose [6] | Aspect [7] | particle size [8] | flowability and adherence during tablet preparation ([9]; 30 mg tablets by direct compression, Turbula mixer about 15 minutes) | flowability and adherence during capsule preparation ([9]; 100 mg hard gelatin capsules, Turbula mixer 15 minutes) | bulk (or apparent) density [1, 10] | Bulk density ([1]; listed as coenzyme Q10 raw material) | tapped (or compacted) density [2, 10]
1 | COC1=C(OC)C(=O)C(C/C=C(\C)CC/C=C(\C)CC/C=C(\C)CC/C=C(\C)CC/C=C(\C)CC/C=C(\C)CC/C=C(\C)CC/C=C(\C)CC/C=C(\C)CCC=C(C)C)=C(C)C1=O [Compacted CoQ10 (Example 1), 2-[(2E,6E,10E,14E,18E,22E,26E,30E,34E)-3,7,11,15,19,23,27,31,35,39-Decamethyltetraconta-2,6,10,14,18,22,26,30,34,38-decaenyl]-5,6-dimethoxy-3-methylcyclohexa-2,5-diene-1,4-dione] | 0.52 g/mL | 0.52 g/mL | 0.57 g/mL | 8.78% | 1.10 | Three times faster than for uncompacted CoQ10. The material does not stick to the walls | 10° | Orange granules without agglomerates, highly flowable and with dry appearance | less than 800 microns | good flowability and did not adhere neither to the walls of vessels and mixers nor to the punches and dies of the tableting machine | good flowability and did not adhere to the walls of vessels and mixers |  |  | 
2 | COC1=C(OC)C(=O)C(C/C=C(\C)CC/C=C(\C)CC/C=C(\C)CC/C=C(\C)CC/C=C(\C)CC/C=C(\C)CC/C=C(\C)CC/C=C(\C)CC/C=C(\C)CCC=C(C)C)=C(C)C1=O [Non-compacted CoQ10 (starting material), 2-[(2E,6E,10E,14E,18E,22E,26E,30E,34E)-3,7,11,15,19,23,27,31,35,39-Decamethyltetraconta-2,6,10,14,18,22,26,30,34,38-decaenyl]-5,6-dimethoxy-3-methylcyclohexa-2,5-diene-1,4-dione] | 0.22 g/mL |  | 0.34 g/mL | 35.3% | 1.55 | Slow, the material sticks to the walls | 45° | Orange powder with damp, agglomerated appearance, hygroscopic | less than 800 microns |  |  | about 0.22 mg/ml | 0.22 g/mL | about 0.34 mg/ml
